Assay results taken from patent US10570184B2, “GLP-1/glucagon receptor co-agonists for medical use” (Novo Nordisk A/S, priority 2014, dated 2020).
Starred links: 1 amine or outer side, 2 acyl side, 3 side chain; linkers in the order of their positions; H or OH if unused. Non-standard residues stand in square brackets, D forms with d. Residues, ends and D or L forms follow the SMILES beside them. Groups on a side chain read outwards from the residue. *: point of attachment. C18 diacid = O=C(O)CCCCCCCCCCCCCCCCC(=O)*; γGlu = O=C(O)[C@H](CCC(=O)[*:2])N[*:1]; AEEA = NCCOCCOCC(=O)O; Aib = CC(C)(N)C(=O)O

Assays:
[1] = molecular target: T1, human GLP-1 receptor (Homo sapiens, UniProt P43220); test: Assay (I)(a) GLP-1 receptor activation, CRE luciferase reporter gene assay in BHK cells; format: cell-based; details: without presence of serum albumin; read-out: GLP-1R EC50 (pM) [Assay (I)(a)]
T1 construct: expressed in transfected cells; host or cells: membranes of BHK cells (parent BHKTS13), clone FCW467-12A
Description: The purpose of this example was to test the activity or potency, of the glucagon derivatives of the invention, in vitro. The in vitro potency is the measure of human GLP-1 receptor (GLP-1R) or glucagon receptor (glucagonR) activation, respectively, in a whole cell assay. In vitro potency was determined by measuring the response of human GLP-1 or glucagon receptor, respectively, in a reporter gene assay. The assay was performed in a stably transfected BHK cell line that expresses either the human GLP-1 receptor or the human glucagon receptor and contains the DNA for the cAMP response element (CRE) coupled to a promoter and the gene for firefly luciferase (CRE luciferase). […] When assay incubation was completed, the luciferase substrate (luciferin) was added and the enzyme converted luciferin to oxyluciferin and produces bioluminescence. The luminescence was measured as the readout for the assay. The cells used in this assay (clone FCW467-12A/KZ10-1) were BHK cells with BHKTS13 as a parent cell line. The cells were derived from a clone (FCW467-12A) that expresses the human GLP-1 receptor and were established by further transfection with CRE luciferase to obtain the current clone. The cells were cultured at 5% CO2 in DMEM medium with 10% FBS, 1×GlutaMAX, 1 mg/ml G418, 240 nM MTX (methotrexate) and 1% pen/strep (penicillin/streptomycin). They were aliquoted and stored in liquid nitrogen. Before each assay, an aliquot was taken up and washed three times in PBS before being suspended at the desired concentration in assay medium. For 96-well plates the suspension was made to give a final concentration of 5×10EE3 cells/well. The following chemicals were used in the assay: Pluronic F-68 (10%) (Gibco 2404), ovalbumin (Sigma A5503), DMEM w/o phenol red (Gibco 11880-028), 1 M Hepes (Gibco 15630), Glutamax 100× (Gibco 35050) and steadylite plus (PerkinElmer 6016757). Assay Medium consisted of DMEM w/o phenol red, 10 mM Hepes, 1× GlutaMAX, 2% Ovalbumin and 0.2% Pluronic F-68. Cell stocks were thawed in a 37° C. water bath. Cells were washed three times in PBS. The cells were counted and adjusted to 5×10EE3 cells/50 μl (1×10EE5 cells/ml) in Assay Medium. A 50 μl aliquot of cells was transferred to each well in the assay plate. Stocks of the test compounds and reference compounds were diluted to a concentration of […] in Assay Medium. Compounds were diluted 10-fold to give the following concentrations: 2×10EE-6 M, 2×10EE-7 M, 2×10EE-8 M; 2×10EE-9 M, 2×10EE-10 M, 2×10EE-11 M, 2×10EE-12 M and 2×10EE-13 M. For each compound a blank assay medium control was also included. A 50 μl aliquot of compound or blank was transferred from the dilution plate to the assay plate. Compounds were tested at the following final concentrations: 1×10EE-6 M, 1×10EE-7 M, 1×10EE-8 M; 1×10EE-9 M, 1×10EE-10 M, 1×10EE-11 M and 1×10EE-12 M and 1×10EE-13 M. The assay plate was incubated for 3 h in a 5% CO2 incubator at 37° C. The assay plate was removed from the incubator and allowed to stand at room temperature for 15 min. A 100 μl aliquot of steadylite plus reagent was added to each well of the assay plate (reagent is light sensitive). Each assay plate was covered with aluminum foil to protect it from light and shaken for 30 min at room temperature. Each assay plate was read in a Perkin Elmer TopCount NXT instrument. The data from the TopCount instrument was transferred to GraphPad Prism software. The software performed a non-linear regression (log(agonist) vs response-Variable slope (four parameter)). EC50 values were calculated by the software and reported in pM.

[2] = molecular target: T1, human GLP-1 receptor; test: Assay (II)(a) GLP-1 receptor binding, 125I-GLP-1 displacement SPA on BHK membranes; details: without presence of serum albumin; read-out: GLP-1R IC50 (nM) [Assay (II)(a)]
Description: The GLP-1 receptor (GLP-1R) binding is a measure of affinity of a compound for the human GLP-1 receptor. The receptor binding of each compound to the human GLP-1 receptor was measured in a displacement binding assay. In this type of assay a labelled ligand (in this case 125I-GLP-1) is bound to the receptor. Each derivative was added in a series of concentrations to isolated membranes containing the human GLP-1 receptor and displacement of the labelled ligand was monitored. The receptor binding was reported as the concentration at which half of the labelled ligand was displaced from the receptor, the IC50 value. In order to test the binding of the derivatives to albumin, the assay may be performed in a very low concentration of serum albumin (max. 0.001% final assay concentration) as well as in the presence of a (considerably) higher concentration of serum albumin (2.0% final assay concentration). An increase of the IC50 value, in the presence of serum albumin indicates an affinity to serum albumin and represents a method to predict a protracted pharmacokinetic profile of the test substance in animal models. The following chemicals were used in the assay: DMEM w/o phenol red (Gibco 11880-028), Pen/strep (Invitrogen 15140-122), G418 (Invitrogen 10131-027), 1 M Hepes (Gibco 15630), EDTA (Invitrogen 15575-038), PBS (Invitrogen 14190-094), fetal calf serum (Invitrogen 16140-071), EGTA, MgCl2 (Merck 1.05832.1000), Tween 20 (Amresco 0850C335), SPA particles (wheat germ agglutinin (WGA) SPA beads, Perkin Elmer RPNQ0001), [125I]-GLP-1]-(7-36)NH2 (produced in-house), OptiPlate™-96 (Perkin Elmer). Buffer 1 consisted of 20 mM Na-HEPES plus 10 mM EDTA and pH was adjusted to 7.4. Buffer 2 consisted of 20 mM Na-HEPES plus 0.1 mM EDTA and pH was adjusted to 7.4. Assay buffer consisted of 50 mM HEPES supplemented with 5 mM EGTA, 5 mM MgCl2, 0.005% Tween 20 and pH was adjusted to 7.4. The cells used in this assay (clone FCW467-12A) were BHK cells with BHKTS13 as a parent cell line. The cells express the human GLP-1 receptor. The cells were grown at 5% CO2 in DMEM, 10% fetal calf serum, 1% Pen/Strep (Penicillin/Streptomycin) and 1.0 mg/ml of the selection marker G418. To make a membrane preparation the cells were grown to approximately 80% confluence. The cells were washed twice in phosphate-buffered saline and harvested. The cells were pelleted using a brief centrifugation and the cell pellet was kept on ice. The cell pellet was homogenised with ULTRA-THURRAX dispersing instrument for 20-30 seconds in a suitable amount of buffer 1 (e.g., 10 ml). The homogenate was centrifuged for 15 minutes. The pellet was re-suspended (homogenised) in 10 ml buffer 2 and centrifuged. This step was repeated once more. The resulting pellet was re-suspended in buffer 2 and the protein concentration was determined. The membranes were aliquoted and stored at minus 80° C. • 1. For the receptor binding assay, 50 μl of the assay buffer was added to each well of an assay plate. • 2. Test compounds were serially diluted to give the following concentrations: 8×10EE-7 M, 8×10EE-8 M, 8×10EE-9 M, 8×10EE-10 M, 8×10EE-11 M, 8×10EE-12 M and 8×10EE-13 M. Twenty-five μl were added to appropriate wells in the assay plate. • 3. Cell membrane aliquots were thawed and diluted to their working concentration. Fifty μl were added to each well in the assay plate. • 4. WGA SPA beads were suspended in assay buffer at 20 mg/ml. The suspension was diluted to 10 mg/ml in assay buffer just prior to addition to the assay plate. Fifty μl were added to each well in the assay plate. • 5. The incubation was started by adding 25 μl of […] solution of [125I]-GLP-1]-(7-36)NH2 to each well of the assay plate. A 25 μl aliquot was reserved for measuring total counts/well. • 6. The assay plate was incubated for 2 h at 30° C. • 7. The assay plate was centrifuged for 10 min. • 8. The assay plate was read in a Perkin Elmer TopCount NXT instrument. […]

T1 sequence (P43220 24-463): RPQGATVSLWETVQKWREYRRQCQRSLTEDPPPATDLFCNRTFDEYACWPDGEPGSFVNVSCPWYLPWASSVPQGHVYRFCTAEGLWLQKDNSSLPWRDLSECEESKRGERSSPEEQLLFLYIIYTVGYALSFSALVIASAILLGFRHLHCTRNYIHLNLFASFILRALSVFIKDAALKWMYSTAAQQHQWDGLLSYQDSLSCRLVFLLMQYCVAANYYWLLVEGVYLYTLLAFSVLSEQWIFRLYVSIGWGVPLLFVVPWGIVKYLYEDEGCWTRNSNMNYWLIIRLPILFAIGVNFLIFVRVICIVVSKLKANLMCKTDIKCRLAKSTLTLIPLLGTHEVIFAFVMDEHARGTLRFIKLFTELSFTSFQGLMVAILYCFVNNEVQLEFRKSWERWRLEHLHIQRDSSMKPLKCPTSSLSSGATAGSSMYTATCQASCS

EC50 [1] [pM]	IC50 [2] [nM]	Compound
3		CC[C@H](C)[C@H](NC(=O)[C@H](CC(C)C)NC(=O)[C@H](Cc1c[nH]c2ccccc12)NC(=O)[C@H](CCC(N)=O)NC(=O)[C@@H](NC(=O)[C@H](Cc1ccccc1)NC(=O)[C@H](CC(=O)O)NC(=O)[C@H](CCC(N)=O)NC(=O)[C@H](C)NC(=O)[C@H](CCCNC(=N)N)NC(=O)[C@H](CCCNC(=N)N)NC(=O)[C@@H](NC(=O)[C@H](CC(=O)O)NC(=O)[C@H](CC(C)C)NC(=O)[C@H](Cc1ccc(O)cc1)NC(=O)[C@H](CCCCN)NC(=O)[C@H](CO)NC(=O)[C@H](CC(C)C)NC(=O)[C@H](CC(=O)O)NC(=O)[C@H](CO)NC(=O)[C@@H](NC(=O)[C@H](Cc1ccccc1)NC(=O)[C@@H](NC(=O)CNC(=O)[C@H](CCC(N)=O)NC(=O)C(C)(C)NC(=O)[C@@H](N)Cc1c[nH]cn1)[C@@H](C)O)[C@@H](C)O)C(C)C)C(C)C)C(=O)N[C@@H](CCCCNC(=O)CC[C@H](NC(=O)COCCOCCNC(=O)COCCOCCNC(=O)CC[C@H](NC(=O)CC[C@H](NC(=O)CCCCCCCCCCCCCCCCC(=O)O)C(=O)O)C(=O)O)C(=O)O)C(=O)N[C@H](C(N)=O)[C@@H](C)O [Chem. 40, N^ε28-[(4S)-4-carboxy-4-[[2-[2-[2-[[2-[2-[2-[[(4S)-4-carboxy-4-[[(4S)-4-carboxy-4-(17-carboxyheptadecanoylamino)butanoyl]amino]butanoyl]amino]ethoxy]ethoxy]acetyl]amino]ethoxy]ethoxy]acetyl]amino]butanoyl]-[Aib2,Leu10,Val16,Ile27,Lys28]-Glucagon amide] (H-H[Aib]QGTFTSDLSKYLDVRRAQDFVQWLIK([γGlu-AEEA-AEEA-γGlu-γGlu-C18 diacid])T-NH2; N-terminus assumed)
	0.1	CC[C@H](C)[C@H](NC(=O)[C@H](CC(C)C)NC(=O)[C@H](Cc1c[nH]c2ccccc12)NC(=O)[C@H](CCC(N)=O)NC(=O)[C@@H](NC(=O)[C@H](Cc1ccccc1)NC(=O)[C@H](CC(=O)O)NC(=O)[C@H](CCC(N)=O)NC(=O)[C@H](C)NC(=O)[C@H](CCCNC(=N)N)NC(=O)[C@H](CCCNC(=N)N)NC(=O)[C@H](C)NC(=O)[C@H](CC(=O)O)NC(=O)[C@H](CC(C)C)NC(=O)[C@H](Cc1ccc(O)cc1)NC(=O)[C@H](CCCCN)NC(=O)[C@H](CO)NC(=O)[C@@H](NC(=O)[C@H](CC(=O)O)NC(=O)[C@H](CO)NC(=O)[C@@H](NC(=O)[C@H](Cc1ccccc1)NC(=O)[C@@H](NC(=O)CNC(=O)[C@H](CCC(N)=O)NC(=O)C(C)(C)NC(=O)[C@@H](N)Cc1c[nH]cn1)[C@@H](C)O)[C@@H](C)O)C(C)C)C(C)C)C(=O)N[C@@H](CCCCNC(=O)CC[C@H](NC(=O)COCCOCCNC(=O)COCCOCCNC(=O)CC[C@H](NC(=O)CC[C@H](NC(=O)CCCCCCCCCCCCCCCCC(=O)O)C(=O)O)C(=O)O)C(=O)O)C(=O)N[C@H](C(N)=O)[C@@H](C)O [Chem. 39, N^ε28-[(4S)-4-carboxy-4-[[2-[2-[2-[[2-[2-[2-[[(4S)-4-carboxy-4-[[(4S)-4-carboxy-4-(17-carboxyheptadecanoylamino)butanoyl]amino]butanoyl]amino]ethoxy]ethoxy]acetyl]amino]ethoxy]ethoxy]acetyl]amino]butanoyl]-[Aib2,Val10,Ala16,Ile27,Lys28]-Glucagon amide] (H-H[Aib]QGTFTSDVSKYLDARRAQDFVQWLIK([γGlu-AEEA-AEEA-γGlu-γGlu-C18 diacid])T-NH2; N-terminus assumed)
